From ChEMBL document CHEMBL1125697, “Synthesis and pharmacological examination of 1-(3-methoxy-4-methylphenyl)-2-aminopropane and 5-methoxy-6-methyl-2-aminoindan: similarities to 3,4-(methylenedioxy)methamphetamine (MDMA)” (J Med Chem, 1991)
Values joined by “and” are separate entries in the source; they are usually repeats but may differ in a detail not shown here. Equal entries are not always repeated.

What was measured:
Rattus norvegicus [1] = species: Rattus norvegicus; assay: Compound was evaluated for the uptake inhibition of [3H]-5-HT in rats; assay type: functional
Rattus norvegicus [2] = species: Rattus norvegicus; assay: Effective dose was evaluated for drug discrimination in I-trained rats; assay type: functional
Rattus norvegicus [3] = assay: Effective dose was evaluated for drug discrimination in I-trained rats, when given at a dose of 1.16 micro mol/kg; assay type: functional
Rattus norvegicus [4] = assay: Percentage of non disrupted rats that selected the drug lever, when given at a dose of 0.25 mg/kg; assay type: functional
Rattus norvegicus [5] = assay: Percentage of non disrupted rats that selected the drug lever, when given at a dose of 0.75 mg/kg; assay type: functional
Rattus norvegicus [6] = assay: Effective dose was evaluated for drug discrimination in I-trained rats, when given at a dose of 0.25 mg/kg; assay type: functional
Rattus norvegicus [7] = assay: Percentage of non disrupted rats that selected the drug lever, when given at a dose of 0.5 mg/kg; assay type: functional
Rattus norvegicus [8] = assay: Momoamine and metabolic levels observed at 3 hr postdrug against, at a dose of 20 mg/kg Frontal cortex DA; assay type: ADME, organism-based; parameters: dose 20 mg/kg; conditions: in vivo
Rattus norvegicus [9] = assay: Momoamine and metabolic levels observed 1 week following acute dosing at a dose of 10 mg/kg Frontal cortex DA; assay type: ADME, organism-based; parameters: dose 10 mg/kg; conditions: in vivo, 168 h
Rattus norvegicus [10] = assay: Momoamine and metabolic levels observed 2 weeks following sub-acute dosing against Frontal cortex HVA; assay type: ADME, organism-based; conditions: in vivo, 336 h
Rattus norvegicus [11] = assay: Percentage of non disrupted rats that selected the drug lever, when given at a dose of 0.5 mg/kg in […]-Trained rats; assay type: functional
Rattus norvegicus [12] = assay: Momoamine and metabolic levels observed 1 week following acute dosing at a dose of 10 mg/kg Frontal cortex NE; assay type: ADME, organism-based; parameters: dose 10 mg/kg; conditions: in vivo, 168 h
[13] = target: Sodium-dependent serotonin transporter (Rattus norvegicus) (UniProt P31652); assay: Number of uptake sites for [3H]paroxetine receptor binding after sub-acute dosing against Hippocampus
Rattus norvegicus [14] = assay: Momoamine and metabolic levels observed at 3 hr postdrug against, at a dose of 20 mg/kg Frontal cortex DOPAC; assay type: ADME, organism-based; parameters: dose 20 mg/kg; conditions: in vivo
Rattus norvegicus [15] = assay: Momoamine and metabolic levels observed 1 week following acute dosing at a dose of 10 mg/kg Frontal cortex DOPAC; assay type: ADME, organism-based; parameters: dose 10 mg/kg; conditions: in vivo, 168 h
Rattus norvegicus [16] = assay: Momoamine and metabolic levels observed 1 week following acute dosing against at a dose of 20 mg/kg Hippocampus NE; assay type: ADME, organism-based; parameters: dose 20 mg/kg; conditions: in vivo, 168 h
Rattus norvegicus [17] = assay: Momoamine and metabolic levels observed 1 week following acute dosing against at a dose of 20 mg/kg Frontal cortex 5-HT; assay type: ADME, organism-based; parameters: dose 20 mg/kg; conditions: in vivo, 168 h
Rattus norvegicus [18] = assay: Momoamine and metabolic levels observed 1 week following acute dosing against at a dose of 20 mg/kg Hippocampus 5-HT; assay type: ADME, organism-based; parameters: dose 20 mg/kg; conditions: in vivo, 168 h
Rattus norvegicus [19] = assay: Momoamine and metabolic levels observed at 3 hr postdrug against, at a dose of 20 mg/kg Frontal cortex HVA; assay type: ADME, organism-based; parameters: dose 20 mg/kg; conditions: in vivo
Rattus norvegicus [20] = assay: Momoamine and metabolic levels observed 2 weeks following sub-acute dosing against Frontal cortex 5-HT; assay type: ADME, organism-based; conditions: in vivo, 336 h
Rattus norvegicus [21] = assay: Momoamine and metabolic levels observed 1 week following acute dosing against at a dose of 20 mg/kg Frontal cortex DA; assay type: ADME, organism-based; parameters: dose 20 mg/kg; conditions: in vivo, 168 h
Rattus norvegicus [22] = assay: Momoamine and metabolic levels observed 2 weeks following sub-acute dosing against Hippocampus NE; assay type: ADME, organism-based; conditions: in vivo, 336 h
Rattus norvegicus [23] = assay: Momoamine and metabolic levels observed 1 week following acute dosing at a dose of 10 mg/kg Frontal cortex HVA; assay type: ADME, organism-based; parameters: dose 10 mg/kg; conditions: in vivo, 168 h
Rattus norvegicus [24] = assay: Percentage of non disrupted rats that selected the drug lever, when given at a dose of 0.25 mg/kg in S-Amphetamine-Trained rats; assay type: functional
Rattus norvegicus [25] = assay: Momoamine and metabolic levels observed 1 week following acute dosing against at a dose of 20 mg/kg Frontal cortex 5-HIAA; assay type: ADME, organism-based; parameters: dose 20 mg/kg; conditions: in vivo, 168 h
Rattus norvegicus [26] = assay: Momoamine and metabolic levels observed at 3 hr postdrug against, at a dose of 20 mg/kg Hippocampus 5-HIAA; assay type: ADME, organism-based; parameters: dose 20 mg/kg; conditions: in vivo
Rattus norvegicus [27] = assay: Percentage of non disrupted rats that selected the drug lever, when given at a dose of 2.00 mg/kg in […]-Trained rats; assay type: functional
Rattus norvegicus [28] = assay: Momoamine and metabolic levels observed at 3 hr postdrug against, at a dose of 20 mg/kg Frontal cortex 5-HT; assay type: ADME, organism-based; parameters: dose 20 mg/kg; conditions: in vivo
[29] = target: Sodium-dependent serotonin transporter (Rattus norvegicus) (UniProt P31652); assay: Number of uptake sites for [3H]paroxetine receptor binding after sub-acute dosing against Frontal cortex; assay type: tissue-based
Rattus norvegicus [30] = assay: Momoamine and metabolic levels observed 1 week following acute dosing at a dose of 10 mg/kg Frontal cortex 5-HT; assay type: ADME, organism-based; parameters: dose 10 mg/kg; conditions: in vivo, 168 h
Rattus norvegicus [31] = assay: Momoamine and metabolic levels observed 2 weeks following sub-acute dosing against Frontal cortex DA; assay type: ADME, organism-based; conditions: in vivo, 336 h
Rattus norvegicus [32] = assay: Momoamine and metabolic levels observed 1 week following acute dosing at a dose of 10 mg/kg Frontal cortex 5-HIAA; assay type: ADME, organism-based; parameters: dose 10 mg/kg; conditions: in vivo, 168 h
Rattus norvegicus [33] = assay: Momoamine and metabolic levels observed 1 week following acute dosing against at a dose of 20 mg/kg Hippocampus 5-HIAA; assay type: ADME, organism-based; parameters: dose 20 mg/kg; conditions: in vivo, 168 h
Rattus norvegicus [34] = assay: Momoamine and metabolic levels observed at 3 hr postdrug against, at a dose of 20 mg/kg Frontal cortex 5-HIAA; assay type: ADME, organism-based; parameters: dose 20 mg/kg; conditions: in vivo
Rattus norvegicus [35] = assay: Momoamine and metabolic levels observed 1 week following acute dosing against at a dose of 10 mg/kg Hippocampus 5-HT; assay type: ADME, organism-based; parameters: dose 10 mg/kg; conditions: in vivo, 168 h
Rattus norvegicus [36] = assay: Momoamine and metabolic levels observed 2 weeks following sub-acute dosing against Frontal cortex NE; assay type: ADME, organism-based; conditions: in vivo, 336 h
Rattus norvegicus [37] = assay: Effective dose was evaluated for drug discrimination in I-trained rats, when given at a dose of 0.25 micro mol/kg; assay type: functional
Rattus norvegicus [38] = assay: Percentage of non disrupted rats that selected the drug lever, when given at a dose of 1.00 mg/kg in S-Amphetamine-Trained rats; assay type: functional
Rattus norvegicus [39] = assay: Momoamine and metabolic levels observed at 3 hr postdrug against, at a dose of 20 mg/kg Hippocampus NE; assay type: ADME, organism-based; parameters: dose 20 mg/kg; conditions: in vivo
Rattus norvegicus [40] = assay: Percentage of non disrupted rats that selected the drug lever, when given at a dose of 1.00 mg/kg; assay type: functional
Rattus norvegicus [41] = assay: Momoamine and metabolic levels observed at 3 hr postdrug against, at a dose of 20 mg/kg Frontal cortex NE; assay type: ADME, organism-based; parameters: dose 20 mg/kg; conditions: in vivo
Rattus norvegicus [42] = assay: Percentage of non disrupted rats that selected the drug lever, when given at a dose of 2.00 mg/kg; assay type: functional
Rattus norvegicus [43] = assay: Momoamine and metabolic levels observed 1 week following acute dosing at a dose of 10 mg/kg Hippocampus 5-HIAA; assay type: ADME, organism-based; parameters: dose 10 mg/kg; conditions: in vivo, 168 h
Rattus norvegicus [44] = assay: Momoamine and metabolic levels observed 1 week following acute dosing against at a dose of 10 mg/kg Hippocampus NE; assay type: ADME, organism-based; parameters: dose 10 mg/kg; conditions: in vivo, 168 h
Rattus norvegicus [45] = assay: Momoamine and metabolic levels observed 1 week following acute dosing against at a dose of 20 mg/kg Frontal cortex NE; assay type: ADME, organism-based; parameters: dose 20 mg/kg; conditions: in vivo, 168 h
Rattus norvegicus [46] = assay: Momoamine and metabolic levels observed 1 week following acute dosing against at a dose of 20 mg/kg Frontal cortex HVA; assay type: ADME, organism-based; parameters: dose 20 mg/kg; conditions: in vivo, 168 h
Rattus norvegicus [47] = assay: Momoamine and metabolic levels observed 2 weeks following sub-acute dosing against Frontal cortex DOPAC; assay type: ADME, organism-based; conditions: in vivo, 336 h
Rattus norvegicus [48] = assay: Momoamine and metabolic levels observed 2 weeks following sub-acute dosing against Hippocampus 5-HT; assay type: ADME, organism-based; conditions: in vivo, 336 h
Rattus norvegicus [49] = assay: Percentage of non disrupted rats that selected the drug lever, when given at a dose of 2.50 mg/kg in […]-Trained rats; assay type: functional; conditions: dose 2.5 mg/kg
Rattus norvegicus [50] = assay: Momoamine and metabolic levels observed at 3 h postdrug against, at a dose of 20 mg/kg Hippocampus 5-HT; assay type: ADME, organism-based; parameters: dose 20 mg/kg; conditions: in vivo
Rattus norvegicus [51] = assay: Percentage of non disrupted rats that selected the drug lever, when given at a dose of 1.00 mg/kg in […]-Trained rats; assay type: functional
Rattus norvegicus [52] = assay: Percentage of non disrupted rats that selected the drug lever, when given at a dose of 0.5 mg/kg in S-Amphetamine-Trained rats; assay type: functional
Rattus norvegicus [53] = assay: Momoamine and metabolic levels observed 2 weeks following sub-acute dosing against Frontal cortex 5-HIAA; assay type: ADME, organism-based; conditions: in vivo, 336 h
Rattus norvegicus [54] = assay: Momoamine and metabolic levels observed 1 week following acute dosing against at a dose of 20 mg/kg Frontal cortex DOPAC; assay type: ADME, organism-based; parameters: dose 20 mg/kg; conditions: in vivo, 168 h
Rattus norvegicus [55] = assay: Momoamine and metabolic levels observed 2 weeks following sub-acute dosing against Hippocampus 5-HIAA; assay type: ADME, organism-based; conditions: in vivo, 336 h
[56] = Rattus norvegicus, read-out: ED50

Sodium-dependent serotonin transporter (Rattus norvegicus), sequence (P31652 whole entry): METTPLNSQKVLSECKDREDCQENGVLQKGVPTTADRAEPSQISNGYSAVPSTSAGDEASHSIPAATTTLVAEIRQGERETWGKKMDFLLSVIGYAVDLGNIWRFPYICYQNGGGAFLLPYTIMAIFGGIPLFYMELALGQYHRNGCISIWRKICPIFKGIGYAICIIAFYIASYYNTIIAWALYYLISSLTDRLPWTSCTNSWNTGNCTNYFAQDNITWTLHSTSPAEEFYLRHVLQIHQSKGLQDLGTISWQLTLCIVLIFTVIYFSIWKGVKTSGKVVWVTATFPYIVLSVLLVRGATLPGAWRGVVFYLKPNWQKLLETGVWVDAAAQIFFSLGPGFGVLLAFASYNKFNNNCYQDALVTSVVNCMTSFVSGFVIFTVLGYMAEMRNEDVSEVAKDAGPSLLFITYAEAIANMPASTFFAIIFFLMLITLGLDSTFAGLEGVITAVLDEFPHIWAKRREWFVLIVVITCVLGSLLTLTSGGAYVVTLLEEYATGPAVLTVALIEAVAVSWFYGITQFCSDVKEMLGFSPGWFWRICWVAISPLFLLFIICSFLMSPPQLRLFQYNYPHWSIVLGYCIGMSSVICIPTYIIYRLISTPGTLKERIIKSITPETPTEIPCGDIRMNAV

COc1cc(CC(C)N)c(OC)cc1C (stereo not drawn) [DOM]
IC50 (Rattus norvegicus [1]): 10700 nM

CC[C@@H](Cc1ccc2c(c1)OCO2)NC
ED50 (Rattus norvegicus [2]): 0.79 mg/kg and 3.25 µmol/kg

COc1cc(C[C@H](C)N)ccc1C
IC50 (Rattus norvegicus [1]): 99 nM | ED50 (Rattus norvegicus [3]): 2.14 µmol/kg | SDL (Rattus norvegicus [4]): 17% | SDL (Rattus norvegicus [5]): 100% | ED50 (Rattus norvegicus [6]; [56]): 0.46 mg/kg | SDL (Rattus norvegicus [7]): 33%

COc1ccc2c(c1C)CC(N)C2 (stereo not drawn)
IC50 (Rattus norvegicus [1]): 212 nM | Metabolite level (Rattus norvegicus [8]): 113 | Metabolite level (Rattus norvegicus [9]): 88 | Metabolite level (Rattus norvegicus [10]): 59 | SDL (Rattus norvegicus [11]): 11% | Metabolite level (Rattus norvegicus [12]): 414 | No. of uptake sites [13]: 15.6 | Metabolite level (Rattus norvegicus [14]): 40 | Metabolite level (Rattus norvegicus [15]): 36 | Metabolite level (Rattus norvegicus [16]): 583 | Metabolite level (Rattus norvegicus [17]): 316 | Metabolite level (Rattus norvegicus [18]): 462 | ED50 (Rattus norvegicus [3]): 3.77 µmol/kg | Metabolite level (Rattus norvegicus [19]): 112 | Metabolite level (Rattus norvegicus [20]): 415 | Metabolite level (Rattus norvegicus [21]): 81 | Metabolite level (Rattus norvegicus [22]): 716 | Metabolite level (Rattus norvegicus [23]): 74 | SDL (Rattus norvegicus [24]): 17% | Metabolite level (Rattus norvegicus [25]): 240 | Metabolite level (Rattus norvegicus [26]): 272 | SDL (Rattus norvegicus [27]): 38% | Metabolite level (Rattus norvegicus [28]): 148 | No. of uptake sites [29]: 13.6 | Metabolite level (Rattus norvegicus [30]): 312 | SDL (Rattus norvegicus [4]): 13% | Metabolite level (Rattus norvegicus [31]): 92 | Metabolite level (Rattus norvegicus [32]): 210 | Metabolite level (Rattus norvegicus [33]): 476 | Metabolite level (Rattus norvegicus [34]): 146 | Metabolite level (Rattus norvegicus [35]): 312 | ED50 (Rattus norvegicus [6]; [56]): 0.81 mg/kg | ED50 (Rattus norvegicus [6]; dose 0.25 mg/kg): 0.56 mg/kg | Metabolite level (Rattus norvegicus [36]): 568 | ED50 (Rattus norvegicus [37]): 2.63 µmol/kg | SDL (Rattus norvegicus [38]): 50% | Metabolite level (Rattus norvegicus [39]): 646 | SDL (Rattus norvegicus [40]): 75% | Metabolite level (Rattus norvegicus [41]): 558 | SDL (Rattus norvegicus [42]): 100% | Metabolite level (Rattus norvegicus [43]): 434 | Metabolite level (Rattus norvegicus [44]): 633 | Metabolite level (Rattus norvegicus [45]): 509 | SDL (Rattus norvegicus [7]): 25% | Metabolite level (Rattus norvegicus [46]): 65 | Metabolite level (Rattus norvegicus [47]): 54 | Metabolite level (Rattus norvegicus [48]): 434 | SDL (Rattus norvegicus [49]): 50% | Metabolite level (Rattus norvegicus [50]): 256 | SDL (Rattus norvegicus [51]): 13% | SDL (Rattus norvegicus [52]): 33% | Metabolite level (Rattus norvegicus [53]): 256 | Metabolite level (Rattus norvegicus [54]): 35 | Metabolite level (Rattus norvegicus [55]): 518

CCN(CC)C(=O)[C@@H]1C=C2c3cccc4[nH]cc(c34)C[C@H]2N(C)C1 [LYSERGIDE]
ED50 (Rattus norvegicus [2]): 0.025 mg/kg and 0.058 µmol/kg
